Experimental data: patent US7635788B2, “Alpha-amino acid derivatives with antiinflammatory activity” (Italfarmaco SpA, priority 2004, dated 2009)

What was measured:
[1] = system: human hepatoma cell line Hep-G2; test: Cytotoxicity towards tumour cells in vitro (Cell Titer 96 formazane colorimetric assay); type: cell-based; conditions: 48 h, percentage inhibition of the formation of formazane relative to the control
Protocol: The cytotoxicity of some compounds described in the preceding Examples was evaluated in vitro on human hepatoma cell line Hep-G2, by means of a commercial colorimetric method (Cell Titer 96® Aque ous One Solution Cell Proliferation Assay—Promega); the method determines the number of viable cells on the basis of their capacity to metabolise a tetrazolium salt producing formazane. The quantity of formazane produced is proportional to the number of viable cells.
The Hep-G2 cells are distributed 96 well microplates at a density of 4×10^4 cells/well (100 μl), in M199 medium containing 10% foetal bovine serum and supplements (complete medium).
After 24 hours' incubation (37° C., 5% CO2, 90% humidity), the cells are washed once and the medium is replenished with 200 μl of complete medium containing the substances to be tested at the final concentration of 10^−5, 10^−6 and 10^−7M. The test is performed in triplicate.
The plates are incubated for a further 48 h, at the end of which 100 μl of medium are removed and 20 μl/well of staining solution are added in accordance with the supplier's instructions. Optical density (λ=490 nm) is read after 1 hour's incubation at 37° C. using a plate reader (Victor2—Wallac Perkin Elmer).

[2] = system: TNFα production by peripheral blood mononucleocytes stimulated with LPS; test: Inhibition of TNFα production by human monocytes stimulated with LPS; type: cell-based; conditions: LPS 10 ng/ml, 24 hours, ELISA
Protocol: The compounds were dissolved in DMSO at a final concentration of 10 mM.
The solutions for the assay were prepared by diluting the mother solutions in RPMI 1640 with the addition of 1% FCS and 0.01% DMSO and were filtered with 0.2 μm filters.
The peripheral blood mononucleocytes were obtained from blood from healthy donors by separation in a Ficoll-Hypaque gradient [C. G. Figdor, et al. Blood, 1982, 60: 46-53]. The cells were sown in 96-well plates, at a concentration of approx. 500,000 cells per well, suspended in RPMI 1640 containing 1% FCS and were incubated at 37° C. in the presence of different concentrations (from 10^−6 to 10^−11M) of the compounds to be investigated. After 1 hour, LPS was added (at a final concentration of 10 ng/ml; obtained from E. coli 055:B5) and the plates were incubated at 37° C. for a further 24 hours. At the end of this period, the supernatants were collected and used for the determination of TNFα content by means of ELISA (DuoSet ELISA kit; R&D Systems, Minneapolis, Minn., USA).
The concentration of TNFα was calculated using a calibration curve and the IC50 values (the concentration which brings about 50% inhibition of the production of the cytokine) were calculated from the curve obtained by plotting the percentage inhibition values for each individual concentration of the compound under investigation.

| SMILES | IC50 ([2]; Monocyte) [nM] | IC50 [2] [nM] | Cytotoxicity at 10^−5 M [1] [%] | Cytotoxicity at 10^−6 M [1] [%] |
| --- | --- | --- | --- | --- |
| O=C(NO)c1ccc(NC(=O)[C@@H](Cc2ccc3ccccc3c2)NC(=O)c2ccccc2)cc1 [Example 1a, 4-(2(R)-Benzoylamino-3-naphthalen-2-yl-propionylamino)-N-hydroxy-benzamide] | 3 | – | 75.2 | 22.6 |
| CC(=O)N[C@H](Cc1ccc2ccccc2c1)C(=O)Nc1ccc(C(=O)NO)cc1 [Example 2b, 4-(2(R)-Acetylamino-3-naphthalen-2-yl-propionylamino)-N-hydroxy-benzamide] | 51.8 | – | 48.3 | 10.6 |
| CC(=O)N[C@H](C(=O)Nc1ccc(C(=O)NO)cc1)C1Cc2ccccc2C1 [Example 2c, 4-(2(S)-Acetylamino-2-indan-2-yl-acetylamino)-N-hydroxy-benzamide] | 55.9 | – | 78.3 | 28.5 |
| CC(=O)N[C@@H](Cc1ccc2ccccc2c1)C(=O)Nc1ccc(C(=O)NO)cc1 [Example 2d, 4-(2(S)-Acetylamino-3-naphthalen-2-yl-propionylamino)-N-hydroxy-benzamide] | 4.4 | – | 56.2 | 9.6 |
| CC(=O)N[C@@H](Cc1ccccc1)C(=O)Nc1ccc(C(=O)NO)cc1 [Example 2e, 4-(2(S)-Acetylamino-3-phenyl-propionylamino)-N-hydroxy-benzamide] | 12.5 | – | 17.1 | 13.3 |
| O=C(NO)c1ccc(NC(=O)[C@H](Cc2ccc(-c3ccccc3)cc2)NC(=O)c2ccccc2)cc1 [Example 2f, 4-(2(S)-Benzoylamino-3-biphenyl-4-yl-propionylamino)-N-hydroxy-benzamide] | 72.1 | – | 81.6 | 22.7 |
| O=C(NO)c1ccc(NC(=O)[C@H](Cc2ccc3ccccc3c2)NC(=O)c2ccccc2)cc1 [Example 2g, 4-(2(S)-Benzoylamino-3-naphthalen-2-yl-propionylamino)-N-hydroxy-benzamide] | 6.1 | – | 76.5 | 43.2 |
| O=C(NO)c1ccc(NC(=O)[C@H](Cc2ccccc2)NC(=O)c2ccccc2)cc1 [Example 2h, 4-(2(S)-Benzoylamino-3-phenyl-propionylamino)-N-hydroxy-benzamide] | 11.3 | – | 77.4 | 31.2 |
| CC(=O)N[C@@H](Cc1ccc(O)cc1)C(=O)Nc1ccc(C(=O)NO)cc1 [Example 2i, 4-[2(S)-Acetylamino-3-(4-hydroxy-phenyl)-propionylamino]-N-hydroxy-benzamide] | 13.3 | – | 12.2 | 15.7 |
| CC(=O)N[C@@H](Cc1ccc(C(F)(F)F)cc1)C(=O)Nc1ccc(C(=O)NO)cc1 [Example 2j, 4-[2(S)-Acetylamino-3-(4-trifluoromethyl-phenyl)-propionylamino]-N-hydroxy-benzamide] | 4.6 | – | 39.3 | 15.8 |

Now from value to compound, other results behind:

| IC50 ([2]; Monocyte) [nM] | IC50 [2] [nM] | SMILES | Cytotoxicity at 10^−5 M [1] [%] | Cytotoxicity at 10^−6 M [1] [%] |
| --- | --- | --- | --- | --- |
| 148 | – | O=C(NO)c1ccc(NC(=O)[C@H](Cc2ccc(O)cc2)NC(=O)c2ccccc2)cc1 [Example 2k, 4-[2(S)-Benzoylamino-3-(4-hydroxy-phenyl)-propionylamino]-N-hydroxy-benzamide] | 54.4 | 27.7 |
| 29.6 | – | Nc1ccc(C(=O)N[C@H](Cc2ccc3ccccc3c2)C(=O)Nc2ccc(C(=O)NO)cc2)cc1 [Example 2l, 4-Amino-N-[1(R)-(4-hydroxycarbamoyl-phenylcarbamoyl)-2-naphthalen-2-yl-ethyl]-benzamide] | 61.9 | 14.4 |
| 26.7 | – | Nc1ccc(C(=O)N[C@@H](Cc2ccc3ccccc3c2)C(=O)Nc2ccc(C(=O)NO)cc2)cc1 [Example 2m, 4-Amino-N-[1(S)-(4-hydroxycarbamoyl-phenylcarbamoyl)-2-naphthalen-2-yl-ethyl]-benzamide] | 72.4 | 24.5 |
| 6.8 | – | O=C(NO)c1ccc(NC(=O)[C@@H](Cc2ccc3ccccc3c2)NC(=O)c2cncc(Br)c2)cc1 [Example 2n, 5-Bromo-N-[1(R)-(4-hydroxycarbamoyl-phenylcarbamoyl)-2-naphthalen-2-yl-ethyl]-nicotinamide] | 68.2 | 15.9 |
| 200 | – | O=C(NO)c1ccc(NC(=O)[C@H](Cc2ccc(C(F)(F)F)cc2)NC(=O)c2cncc(Br)c2)cc1 [Example 2o, 5-Bromo-N-[1(S)-(4-hydroxycarbamoyl-phenylcarbamoyl)-2-(4-trifluoromethyl-phenyl)-ethyl]-nicotinamide] | 72.4 | 34.8 |
| 42 | – | O=C(NO)c1ccc(NC(=O)[C@H](Cc2ccc(-c3ccccc3)cc2)NC(=O)c2cncc(Br)c2)cc1 [Example 2p, 5-Bromo-N-[1(S)-(4-hydroxycarbamoyl-phenylcarbamoyl)-2-biphenyl-4-yl-ethyl]-nicotinamide] | 61.7 | 10.5 |
| 22.9 | – | O=C(NO)c1ccc(NC(=O)[C@H](Cc2ccc3ccccc3c2)NC(=O)c2cncc(Br)c2)cc1 [Example 2q, 5-Bromo-N-[1(S)-(4-hydroxycarbamoyl-phenylcarbamoyl)-2-naphthalen-2-yl-ethyl]-nicotinamide] | 53.9 | 11.7 |
| – | 1.7 | O=C(NO)c1ccc(NC(=O)[C@@H](Cc2ccc3ccccc3c2)NC(=O)c2ccc3c(c2)OCO3)cc1 [Example 2r, N-[1(R)-(4-hydroxycarbamoyl-phenylcarbamoyl)-2-naphthalen-2-yl-ethyl]-amide of benzo[1,3]dioxole-5-carboxylic acid] | 72.5 | 16.6 |
| – | 1000 | O=C(NO)c1ccc(NC(=O)[C@H](Cc2ccc(O)cc2)NC(=O)c2ccc3c(c2)OCO3)cc1 [Example 2s, N-[1(S)-(4-hydroxycarbamoyl-phenylcarbamoyl)-2-(4-hydroxy-phenyl)-ethyl]-amide of benzo[1,3]dioxole-5-carboxylic acid] | – | – |
| – | 4.8 | O=C(NO)c1ccc(NC(=O)[C@H](Cc2ccc3ccccc3c2)NC(=O)c2ccc3c(c2)OCO3)cc1 [Example 2t, N-[1(S)-(4-hydroxycarbamoyl-phenylcarbamoyl)-2-naphthalen-2-yl-ethyl]-amide of benzo[1,3]dioxole-5-carboxylic acid] | 79.3 | 48.5 |
| – | 6.8 | O=C(NO)c1ccc(NC(=O)[C@H](Cc2cccc(F)c2)NC(=O)c2ccc3c(c2)OCO3)cc1 [Example 2u, N-[1(S)-(4-hydroxycarbamoyl-phenylcarbamoyl)-2-(3-fluoro-phenyl)-ethyl]-amide of benzo[1,3]dioxole-5-carboxylic acid] | 62.9 | 12.9 |
| – | 16.8 | O=C(NO)c1ccc(NC(=O)[C@@H](Cc2ccc3ccccc3c2)NC(=O)c2ccc3ccccc3c2)cc1 [Example 2v, N-[1(R)-(4-hydroxycarbamoyl-phenylcarbamoyl)-2-naphthalen-2-yl-ethyl]-amide of naphthalene-2-carboxylic acid] | 69.4 | 11.8 |
